Laboratory results from patent US20150231236A1, “METHODS FOR TREATING PATIENTS WITH HYPERCHOLESTEROLEMIA THAT IS NOT ADEQUATELY CONTROLLED BY MODERATE-DOSE STATIN THERAPY” (Regeneron Pharmaceuticals, Inc., priority 2014, published 2015).

What was measured:
[1] = system: patients with hypercholesterolemia at high CV risk not adequately controlled with rosuvastatin (10 mg or 20 mg); test: Example 3: safety, treatment-emergent adverse events in pooled treatment groups; details: Safety Population; pooled treatment groups
[2] = system: patients with hypercholesterolemia at high CV risk not adequately controlled with rosuvastatin (10 mg or 20 mg); test: Example 3: randomized, double-blind trial, lipid efficacy of mAb316P add-on to rosuvastatin vs EZE add-on or rosuvastatin dose doubling; format: in vivo, human; details: for Proportion of Patients Reaching LDL-C goal (%) / LDL-C W24 % change from baseline, LS mean (SE): week 24; for Proportion of Patients Reaching LDL-C goal (%): LDL-C <70 mg/dL very high risk or <100 mg/dL high risk; for LDL-C W24 % change from baseline, LS mean (SE): ITT population, treatment arm as labelled
Method: The present study was a randomized, double-blind, active-comparator, parallel-group study in patients at high CV risk with non-FH or heFH who are not adequately controlled with rosuvastatin (10 mg or 20 mg) with or without other lipid-modifying therapy (LMT) (excluding EZE). The study design is illustrated in FIG. 2. Patients who entered the study were taking either rosuvastatin 10 mg or rosuvastatin 20 mg. The former patients were randomized to 1 of 3 treatment arms (arms 1 to 3); the latter patients were randomized to 1 of 3 treatment arms (arms 4 to 6). The treatment arms are as follows:
(B) a double-blind treatment period of 24 weeks. […] The patient/caregiver administered subsequent injections outside of the clinic according to the dosing schedule. […] The last dose of daily oral study drugs was administered at week 24.
The first injection of study drug was administered at the clinical site, as soon as possible after the patient was randomized into the study. The patient was monitored at the clinical site for at least 30 minutes following the first injection. The patient/caregiver administered subsequent injections outside of the clinic, according to the dosing schedule.
(§1) The primary efficacy endpoint was the percent change in calculated LDL-C from baseline to week 24, which is defined as: 100× (calculated LDL-C value at week 24−calculated LDL-C value at baseline)/calculated LDL-C value at baseline. The baseline calculated LDL-C value was the last LDL-C level obtained before the first double-blind study drug injection. The calculated LDL-C at week 24 was the LDL-C level obtained within the week 24 analysis window and during the main efficacy period. The main efficacy period is defined as the time from the first double-blind study drug injection up to 21 days after the last double-blind study drug injection or up to the upper limit of the week 24 analysis window, whichever comes first.
Total-C, HDL-C, TG, ApoB, ApoA-1, and Lp(a) were directly measured by a central laboratory. LDL-C was calculated using the Friedewald formula. […] Non-HDL-C was calculated by subtracting HDL-C from the total-C. Ratio ApoB/ApoA-1 was calculated.
For clarification, the ITT analysis is defined for patients in the ITT population and includes all endpoint assessments in an analysis window, regardless of study treatment dosing status (i.e. includes post-treatment assessments). The on-treatment analysis is defined for patients in the mITT population and includes all endpoint assessments from the first double-blind study drug (capsule or injection, whichever comes first) up to 21 days after the last double-blind study drug injection or 3 days after the last capsule intake, whichever comes first (i.e. includes assessments in the efficacy treatment period).

[3] = system: patients with hypercholesterolemia at high CV risk not adequately controlled with atorvastatin (20 mg or 40 mg); test: Example 2: randomized, double-blind trial, lipid efficacy of mAb316P add-on to atorvastatin vs EZE add-on, atorvastatin dose doubling or switch to rosuvastatin; format: in vivo, human; details: for reduced LDL-C levels by: week 24, add-on mAb316P
Method: The present study was a randomized, double-blind, active-comparator, parallel-group study in patients at high CV risk with non-FH or heFH who are not adequately controlled with atorvastatin (20 mg or 40 mg) with or without other lipid-modifying therapy (LMT) (excluding EZE). The study design is illustrated in FIG. 1. Patients who entered the study were taking either atorvastatin 20 mg or atorvastatin 40 mg. The former patients were randomized to 1 of 3 treatment arms (arms 1 to 3); the latter patients were randomized to 1 of 4 treatment arms (arms 4 to 7). The treatment arms are as follows:
(1) mAb316P+atorvastatin 20 mg+placebo-EZE; (2) Placebo-mAb316P+atorvastatin 40 mg+placebo-EZE; and (3) Placebo-mAb316P+atorvastatin 20 mg+EZE 10 mg.
(4) mAb316P+atorvastatin 40 mg+placebo-EZE; (5) Placebo-mAb316P+atorvastatin 80 mg+placebo-EZE; (6). Placebo-mAb316P+rosuvastatin 40 mg+placebo-EZE; and (7) Placebo-mAb316P+atorvastatin 40 mg+EZE 10 mg.
(B) a double-blind treatment period of 24 weeks. Each patient received a SC injection Q2W (mAb316P or placebo-mAb316P) and was administered (or instructed to take) 2 oral blinded medications daily (a statin [atorvastatin or rosuvastatin] and EZE or placebo-EZE). The first injection of mAb316P or placebo-mAb316P was administered at the clinical site on day 1, after study assessments were completed, and as soon as possible after the patient was randomized into the study. The patient/caregiver administered subsequent injections outside of the clinic according to the dosing schedule. On days where the clinic study visit coincided with dosing, the dose of study drugs (injectable and oral) were administered after all study assessments had been performed and all laboratory samples collected. The last dose of mAb316P or placebo-mAb316P was administered at week 22. The last dose of daily oral study drugs was administered at week 24. At week 12, based on their baseline CV risk, certain patients randomized to mAb316P in a blinded manner, had their dose increased as follows:
Each patient received a subcutaneous (SC) injection once every two weeks (Q2W) (mAb316P or placebo-mAb316P) and took 2 oral blinded medications daily (a statin [atorvastatin or rosuvastatin] and EZE or placebo-EZE).
The injectable study treatment was a single SC injection of 1 mL for a 75 mg or 150 mg dose of mAb316P or placebo-mAb316P provided in an auto-injector, administered in the abdomen, thigh, or outer area of the upper arm. The first injection of study drug was administered at the clinical site, as soon as possible after the patient was randomized into the study. The patient was monitored at the clinical site for at least 30 minutes following the first injection. The patient/caregiver administered subsequent injections outside of the clinic, according to the dosing schedule. On days where the clinic study visit coincided with dosing, the dose of study drug was administered after all study assessments have been performed and all laboratory samples collected.
The dose of mAb316P was increased, in a blinded manner, from 75 mg to 150 mg SC Q2W, starting at week 12, based on baseline CV risk in the following circumstances:
as §1, with “24 will be” for “24 was”, “period was” for “period is”
Total-C, HDL-C, TG, ApoB, ApoA-1, and Lp (a) were directly measured by a central laboratory. […]

[4] = system: patients with hypercholesterolemia at high CV risk not adequately controlled with atorvastatin (20 mg or 40 mg); test: Example 2: safety, treatment-emergent adverse events in pooled treatment groups; details: Safety Population, pooled treatment groups
Method: For the pooled data, three treatment groups are formed by combining treatment arms regardless of the atorvastatin doses as follows:
(2) EZE treatment group: pooling EZE+atorva 20 mg arm and EZE+atorva 40 mg arm;

[5] = Week 4, baseline rosuvastatin 10 mg
[6] = Week 8, baseline rosuvastatin 10 mg
[7] = Week 12, baseline rosuvastatin 10 mg
[8] = Week 16, baseline rosuvastatin 10 mg
[9] = Week 24, baseline rosuvastatin 10 mg
[10] = Week 4, baseline rosuvastatin 20 mg
[11] = Week 8, baseline rosuvastatin 20 mg
[12] = Week 12, baseline rosuvastatin 20 mg
[13] = Week 16, baseline rosuvastatin 20 mg
[14] = Week 24, baseline rosuvastatin 20 mg

O=C1[C@H](CC[C@H](O)c2ccc(F)cc2)[C@@H](c2ccc(O)cc2)N1c1ccc(F)cc1 [EZE, ezetimibe, reference compound]
General Allergic TEAEs [1]: 2 (2.0%) patients (%)
SOC General disorders and administration site conditions [1]: 8 (7.9%) patients (%)
SOC Psychiatric disorders [1]: 4 (4.0%) patients (%)
SOC Respiratory, thoracic and mediastinal disorders [1]: 2 (2.0%) patients (%)
SOC Skin and subcutaneous tissue disorders [1]: 5 (5.0%) patients (%)
TEAEs [1]: 54 (53.5%) patients (%)
Treatment-emergent SAEs [1]: 8 (7.9%) patients (%)
Treatment-emergent cardiovascular events adjudicated positively [1]: 1 (1.0%) patients (%)
Treatment-emergent neurocognitive disorders [1]: 1 (1.0%) patients (%)
Treatment-emergent neurologic disorders [1]: 3 (3.0%) patients (%)
cough [1]: 0 patients (%)
discontinued study treatment early due to a treatment emergent adverse event [1]: 8 (7.9%) patients (%)
injection site reactions (ISRs) [1]: 0 patients (%)
Proportion of Patients Reaching LDL-C goal (%) ([2]; Baseline Rosuvastatin 10 mg): 57.2%
Proportion of Patients Reaching LDL-C goal (%) ([2]; Baseline Rosuvastatin 20 mg): 52.2%
proportion of patients who reached LDL-C level of <70 mg/dL (1.81 mmol/L) at Week 24 ([2]; baseline rosuvastatin 10 mg regimen): 43.1%
proportion of patients who reached LDL-C level of <70 mg/dL (1.81 mmol/L) at Week 24 ([2]; baseline rosuvastatin 20 mg regimen): 43.6%
LDL-C reductions observed ([3]; across atorvastatin 20 mg and 40 mg regimens, ezetimibe add-on groups, atorvastatin dose increase groups): 20.5-22.6%
reduced LDL-C levels by ([3]; atorvastatin 20 mg regimen, add-on ezetimibe or doubling of atorvastatin dose): 20.5%
reduced LDL-C levels by ([3]; atorvastatin 40 mg regimen, add-on ezetimibe, doubling of atorvastatin dose or switch to rosuvastatin 40 mg): 22.6%
General Allergic TEAEs (SMQ Hypersensitivity) [4]: 5 (5.0%) patients (%)
SOC Injury, poisoning and procedural complications [4]: 12 (11.9%) patients (%)
SOC Musculoskeletal and connective tissue disorders [4]: 13 (12.9%) patients (%)
SOC Neoplasms benign, malignant and unspecified (incl cysts and polyps) [4]: 0 patients (%)
SOC Nervous system disorders [4]: 6 (5.9%) patients (%)
TEAEs [4]: 65 (64.4%) patients (%)
Treatment-emergent SAEs [4]: 7 (6.9%) patients (%)
Treatment-emergent injection site reactions (ISRs) [4]: 3 (3.0%) patients (%)
Treatment-emergent neurologic disorders [4]: 1 (1.0%) patients (%)
discontinued study treatment early due to a treatment emergent adverse event (TEAE) [4]: 4 (4.0%) patients (%)
patient deaths [4]: Two
Treatment-emergent cardiovascular events adjudicated positively ([4]; ischemia driven coronary revascularization procedure): 1 (1.0%) patients (%)

mAb316P + RSV 10: treatment arm: mAb316P 75/150 mg Q2W + rosuvastatin 10 mg daily
Proportion of Patients Reaching LDL-C goal (%) ([2]; Baseline Rosuvastatin 10 mg): 84.9%
Calculated LDL-C LS mean (SE) Value ([2]; Baseline, baseline rosuvastatin 10 mg): 107.8 (3.8) mg/dL
LDL-C W24 % change from baseline, LS mean (SE) [2]: −50.6%
Calculated LDL-C LS mean (SE) Value [2, 5]: 49.9 (3.6) mg/dL
Calculated LDL-C LS mean (SE), % Change from Baseline [2, 5]: −53.1 (3.2) %
Calculated LDL-C LS mean (SE), Change from Baseline [2, 5]: −55.3 (3.6)
Calculated LDL-C LS mean (SE) Value [2, 6]: 49.4 (4.3) mg/dL
Calculated LDL-C LS mean (SE), % Change from Baseline [2, 6]: −53.8 (3.8) %
Calculated LDL-C LS mean (SE), Change from Baseline [2, 6]: −55.9 (4.3)
Calculated LDL-C LS mean (SE) Value [2, 7]: 53.9 (4.1) mg/dL
Calculated LDL-C LS mean (SE), % Change from Baseline [2, 7]: −49.6 (4.1) %
Calculated LDL-C LS mean (SE), Change from Baseline [2, 7]: −51.3 (4.1)
Calculated LDL-C LS mean (SE) Value [2, 8]: 49.2 (4.7) mg/dL
Calculated LDL-C LS mean (SE), % Change from Baseline [2, 8]: −54.1 (4.7) %
Calculated LDL-C LS mean (SE), Change from Baseline [2, 8]: −56.1 (4.7)
Calculated LDL-C LS mean (SE) Value [2, 9]: 53.0 (4.3) mg/dL
Calculated LDL-C LS mean (SE), % Change from Baseline [2, 9]: −50.6 (4.2) %
Calculated LDL-C LS mean (SE), Change from Baseline [2, 9]: −52.2 (4.3)

mAb316P + RSV 20: treatment arm: mAb316P 75/150 mg Q2W + rosuvastatin 20 mg daily
Proportion of Patients Reaching LDL-C goal (%) ([2]; Baseline Rosuvastatin 20 mg): 66.7%
Calculated LDL-C LS mean (SE) Value ([2]; Baseline, baseline rosuvastatin 20 mg): 118.1 (4.5) mg/dL
LDL-C W24 % change from baseline, LS mean (SE) [2]: −36.3%
Calculated LDL-C LS mean (SE) Value [2, 10]: 69.9 (3.4) mg/dL
Calculated LDL-C LS mean (SE), % Change from Baseline [2, 10]: −39.6 (5.2) %
Calculated LDL-C LS mean (SE), Change from Baseline [2, 10]: −47.1 (3.4)
Calculated LDL-C LS mean (SE) Value [2, 11]: 67.4 (4.3) mg/dL
Calculated LDL-C LS mean (SE), % Change from Baseline [2, 11]: −40.6 (5.7) %
Calculated LDL-C LS mean (SE), Change from Baseline [2, 11]: −49.6 (4.3)
Calculated LDL-C LS mean (SE) Value [2, 12]: 76.1 (4.2) mg/dL
Calculated LDL-C LS mean (SE), % Change from Baseline [2, 12]: −32.3 (5.2) %
Calculated LDL-C LS mean (SE), Change from Baseline [2, 12]: −41.0 (4.2)
Calculated LDL-C LS mean (SE) Value [2, 13]: 64.5 (4.8) mg/dL
Calculated LDL-C LS mean (SE), % Change from Baseline [2, 13]: −44.8 (6.2) %
Calculated LDL-C LS mean (SE), Change from Baseline [2, 13]: −52.6 (4.8)
Calculated LDL-C LS mean (SE) Value [2, 14]: 73.5 (5.8) mg/dL
Calculated LDL-C LS mean (SE), % Change from Baseline [2, 14]: −36.3 (7.1) %
Calculated LDL-C LS mean (SE), Change from Baseline [2, 14]: −43.5 (5.8)
